PMC3919453 (Bioorganic & medicinal chemistry letters, 2013)

Tests used:
DOR = DOR (Rattus norvegicus, UniProt P33533); test: agonist-stimulated [35S]GTPγS binding, DOR; details: for EC50 (nM) DOR: [35S]GTPγS binding, C6-DOR membranes, dns: does not stimulate
KOR = KOR (Homo sapiens, UniProt P41145); test: agonist-stimulated [35S]GTPγS binding, KOR; details: for EC50 (nM) KOR: [35S]GTPγS binding, CHO-KOR membranes, mean ± SEM; for EC50 (nM) KOR / % stimulation KOR: dns: does not stimulate; for % stimulation KOR: percent maximal stimulation relative to standard agonist U69,593 at 10 µM
MOR = MOR (Rattus norvegicus, UniProt P33535); test: agonist-stimulated [35S]GTPγS binding, MOR; details: for efficacy at MOR (in words): [35S]GTPγS assay; for EC50 (nM) MOR: [35S]GTPγS binding, C6-MOR membranes, mean ± SEM, dns: does not stimulate
MOR, sequence (P33535 whole entry): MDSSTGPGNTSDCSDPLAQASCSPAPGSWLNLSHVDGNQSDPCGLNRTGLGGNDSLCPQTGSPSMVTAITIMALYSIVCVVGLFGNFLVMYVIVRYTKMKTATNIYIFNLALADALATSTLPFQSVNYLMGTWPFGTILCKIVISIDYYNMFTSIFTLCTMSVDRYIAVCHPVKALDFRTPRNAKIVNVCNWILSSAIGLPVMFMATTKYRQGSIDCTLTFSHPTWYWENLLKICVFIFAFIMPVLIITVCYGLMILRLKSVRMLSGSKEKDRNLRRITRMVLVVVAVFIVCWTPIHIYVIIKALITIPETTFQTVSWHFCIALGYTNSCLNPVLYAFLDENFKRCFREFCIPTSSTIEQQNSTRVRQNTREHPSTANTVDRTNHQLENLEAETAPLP

KOR, sequence (P41145 whole entry): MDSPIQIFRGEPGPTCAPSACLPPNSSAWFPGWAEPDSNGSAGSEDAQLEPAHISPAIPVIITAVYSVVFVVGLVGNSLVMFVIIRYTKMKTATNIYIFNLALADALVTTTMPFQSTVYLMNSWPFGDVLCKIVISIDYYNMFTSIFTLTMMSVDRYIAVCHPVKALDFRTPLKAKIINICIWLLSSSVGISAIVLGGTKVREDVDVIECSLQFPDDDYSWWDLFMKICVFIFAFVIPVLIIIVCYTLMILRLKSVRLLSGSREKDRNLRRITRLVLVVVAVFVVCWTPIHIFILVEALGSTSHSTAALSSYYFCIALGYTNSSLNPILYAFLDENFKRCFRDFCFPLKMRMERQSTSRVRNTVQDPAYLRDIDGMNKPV
DOR, sequence (P33533 whole entry): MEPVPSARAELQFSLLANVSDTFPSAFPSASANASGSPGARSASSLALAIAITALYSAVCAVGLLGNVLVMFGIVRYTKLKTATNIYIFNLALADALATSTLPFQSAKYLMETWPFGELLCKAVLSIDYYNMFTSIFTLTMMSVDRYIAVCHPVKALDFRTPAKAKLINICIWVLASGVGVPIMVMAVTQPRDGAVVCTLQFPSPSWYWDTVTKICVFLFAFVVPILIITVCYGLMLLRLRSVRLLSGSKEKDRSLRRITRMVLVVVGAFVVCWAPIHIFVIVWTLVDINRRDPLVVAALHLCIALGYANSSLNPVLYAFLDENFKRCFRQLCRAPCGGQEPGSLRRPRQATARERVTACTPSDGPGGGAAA

SMILES | EC50 (nM) DOR (DOR) | EC50 (nM) KOR (KOR) | % stimulation KOR (KOR) | efficacy at MOR (in words) (MOR) | EC50 (nM) MOR (MOR) | efficacy at DOR (in words) (DOR; [35S]GTPγS assay) | efficacy at KOR (in words) (KOR; [35S]GTPγS assay)
Cc1cc(O)cc(C)c1C[C@H](N)C(=O)N1CCN(C/C=C\Cc2ccccc2)CC1 [Compound 11] | dns | – | – | – | – | – | –
Cc1cc(O)cc(C)c1C[C@H](N)C(=O)N1CCN(CCCCCc2ccccc2)CC1 [Compound 12] | dns | – | – | – | – | – | –
Cc1cc(O)cc(C)c1C[C@H](N)C(=O)N1CCC(Cc2ccccc2)CC1 [Compound 3] | dns | dns | dns | lacked any efficacy | dns | – | –
Cc1cc(O)cc(C)c1C[C@H](N)C(=O)N1CCN(CCCc2cccc3ccccc23)CC1 [Compound 6] | – | – | dns | partial agonist profile | – | – | –
Cc1cc(O)cc(C)c1C[C@H](N)C(=O)N1CCN(CCCc2ccccc2)CC1 [Compound 5] | dns | dns | dns | – | – | – | –
Cc1cc(O)cc(C)c1C[C@H](N)C(=O)N1CCN(CCCCc2ccccc2)CC1 [Compound 9] | dns | dns | – | – | – | – | –
Cc1cc(O)cc(C)c1C[C@H](N)C(=O)N1CCN(C/C=C/Cc2ccccc2)CC1 [Compound 10] | dns | – | – | – | – | – | –
Cc1cc(O)cc(C)c1C[C@H](N)C(=O)N1CCC(Cc2ccccc2)c2ccccc21 (some centres unmarked) [Compound 2] | dns | dns | dns | no notable efficacy | dns | – | –
Cc1cc(O)cc(C)c1C[C@H](N)C(=O)N1CCN(C/C=C/c2cccc3ccccc23)CC1 [Compound 7] | – | – | dns | no efficacy | – | no efficacy | no efficacy
Cc1cc(O)cc(C)c1C[C@H](N)C(=O)N1CCN(CCC(c2ccccc2)c2ccccc2)CC1 [Compound 8] | dns | dns | dns | – | dns | – | –
Cc1cc(O)cc(C)c1C[C@H](N)C(=O)N1CCC(CCCc2ccccc2)CC1 [Compound 4] | dns | dns | dns | weak partial agonist | – | – | –
